Measurements: PubChem BioAssay (NCI)
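In this assay, cells in 96-well plates receive the compound at five concentrations for 48 hours. Endpoints are linearly interpolated between the surrounding concentrations. TGI: total growth inhibition.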

Assays:
Experiment in all cases: growth of human tumour cells (NCI), 48 h
HOP-92 NSCLC = system: HOP-92 NSCLC
NCI-H23 lung = system: NCI-H23 lung
KM12 colon = system: KM12 colon
OVCAR-5 ovarian = system: OVCAR-5 ovarian
NCI-H226 lung = system: NCI-H226 lung
SK-MEL-5 melanoma = system: SK-MEL-5 melanoma
NCI-H460 lung = system: NCI-H460 lung
SF-295 CNS = system: SF-295 CNS
UACC-257 melanoma = system: UACC-257 melanoma
HOP-62 NSCLC = system: HOP-62 NSCLC
SF-268 CNS = system: SF-268 CNS
M14 melanoma = system: M14 melanoma
MOLT-4 leukemia = system: MOLT-4 leukemia
K-562 leukemia = system: K-562 leukemia
NCI-H522 lung = system: NCI-H522 lung
OVCAR-3 ovarian = system: OVCAR-3 ovarian
SNB-19 CNS = system: SNB-19 CNS
MALME-3M melanoma = system: MALME-3M melanoma
SNB-78 CNS = system: SNB-78 CNS
DMS 114 small cell lung = system: DMS 114 small cell lung
KM20L2 colon = system: KM20L2 colon
HCC-2998 colon = system: HCC-2998 colon
CCRF-CEM leukemia = system: CCRF-CEM leukemia
RXF 393 renal = system: RXF 393 renal
HCT-15 colon = system: HCT-15 colon
A498 renal = system: A498 renal
HOP-18 NSCLC = system: HOP-18 NSCLC
RPMI-8226 leukemia = system: RPMI-8226 leukemia
DLD-1 colon = system: DLD-1 colon
SNB-75 CNS = system: SNB-75 CNS
UO-31 renal = system: UO-31 renal
SN12C renal = system: SN12C renal
HT29 colon = system: HT29 colon
786-0 renal = system: 786-0 renal
UACC-62 melanoma = system: UACC-62 melanoma
CAKI-1 renal = system: CAKI-1 renal
SF-539 CNS = system: SF-539 CNS
M19-MEL melanoma = system: M19-MEL melanoma
LOX IMVI melanoma = system: LOX IMVI melanoma
COLO 205 colon = system: COLO 205 colon
A549 NSCLC = system: A549 NSCLC
XF 498 CNS = system: XF 498 CNS
HL-60(TB) leukemia = system: HL-60(TB) leukemia
LXFL 529 NSCLC = system: LXFL 529 NSCLC
SK-MEL-2 melanoma = system: SK-MEL-2 melanoma
OVCAR-4 ovarian = system: OVCAR-4 ovarian
IGROV1 ovarian = system: IGROV1 ovarian
OVCAR-8 ovarian = system: OVCAR-8 ovarian
EKVX NSCLC = system: EKVX NSCLC
SW-620 colon = system: SW-620 colon
SK-OV-3 ovarian = system: SK-OV-3 ovarian
ACHN renal = system: ACHN renal
DMS 273 small cell lung = system: DMS 273 small cell lung
SK-MEL-28 melanoma = system: SK-MEL-28 melanoma
U251 CNS = system: U251 CNS
HCT-116 colon = system: HCT-116 colon
TK-10 renal = system: TK-10 renal
SR leukemia = system: SR leukemia
RXF-631 renal = system: RXF-631 renal

Measured: TGI

Brc1cccc(C=NC23CC4CC(CC(C4)C2)C3)c1
> 100 µM: HOP-92 NSCLC | NCI-H23 lung | KM12 colon | OVCAR-5 ovarian | NCI-H226 lung | SK-MEL-5 melanoma | NCI-H460 lung | SF-295 CNS | UACC-257 melanoma | HOP-62 NSCLC | SF-268 CNS | M14 melanoma | MOLT-4 leukemia | K-562 leukemia | NCI-H522 lung | OVCAR-3 ovarian | SNB-19 CNS | MALME-3M melanoma | SNB-78 CNS | DMS 114 small cell lung | KM20L2 colon | HCC-2998 colon | CCRF-CEM leukemia | RXF 393 renal | HCT-15 colon | A498 renal | HOP-18 NSCLC | RPMI-8226 leukemia | DLD-1 colon | SNB-75 CNS | UO-31 renal | SN12C renal | HT29 colon | 786-0 renal | UACC-62 melanoma | CAKI-1 renal | SF-539 CNS | M19-MEL melanoma | LOX IMVI melanoma | COLO 205 colon | A549 NSCLC | XF 498 CNS | HL-60(TB) leukemia | LXFL 529 NSCLC | SK-MEL-2 melanoma | OVCAR-4 ovarian | IGROV1 ovarian | OVCAR-8 ovarian | EKVX NSCLC | SW-620 colon | SK-OV-3 ovarian | ACHN renal | DMS 273 small cell lung | SK-MEL-28 melanoma | U251 CNS | HCT-116 colon | TK-10 renal

O=C1C2c3[nH]c4ccccc4c3C3CCCCCCC3C2C(=O)N1c1ccccc1 (centres undefined)
29.8 µM: SW-620 colon | DMS 273 small cell lung
37.2 µM: M19-MEL melanoma
38.4 µM: ACHN renal
39.9 µM: A498 renal
14.7 µM: OVCAR-8 ovarian
33.8 µM: LXFL 529 NSCLC
17.2 µM: OVCAR-3 ovarian | LOX IMVI melanoma
12.7 µM: MALME-3M melanoma
18.6 µM: NCI-H460 lung
17.5 µM: DMS 114 small cell lung
27 µM: TK-10 renal
14.9 µM: U251 CNS
32.4 µM: SNB-78 CNS
48.4 µM: SR leukemia
5.33 µM: SNB-75 CNS
43.7 µM: SK-MEL-28 melanoma
> 100 µM: KM12 colon | SK-MEL-5 melanoma | SF-268 CNS | HCC-2998 colon | HCT-15 colon | HT29 colon | UACC-62 melanoma | EKVX NSCLC
22.2 µM: SN12C renal
28.6 µM: COLO 205 colon
15.4 µM: OVCAR-4 ovarian
6.37 µM: SK-OV-3 ovarian
23.8 µM: RXF 393 renal
17.6 µM: RXF-631 renal
30.5 µM: SF-539 CNS
12.8 µM: SF-295 CNS
10.7 µM: XF 498 CNS
25.6 µM: CCRF-CEM leukemia
26.5 µM: 786-0 renal
42.5 µM: M14 melanoma
70.2 µM: NCI-H23 lung
68.3 µM: RPMI-8226 leukemia
24.9 µM: K-562 leukemia | A549 NSCLC
